Results published in paper PMC9126592, “sp^2-Iminosugars targeting human lysosomal β-hexosaminidase as pharmacological chaperone candidates for late-onset Tay-Sachs disease” (Journal of Enzyme Inhibition and Medicinal Chemistry, 2022).

Target: T1, recombinant human O-GlcNAcase (hOGA) (Homo sapiens, UniProt O60502)
T1 construct: the N-terminal region of hOGA, comprising amino acids 11–396; the C-terminal region, comprising amino acids 535–715; His6 (N); His6 followed by 3C-protease cleavage site (N); made in house; host or cells: E. coli Bl21(DE3)-Gold
T1 sequence (O60502 11-396): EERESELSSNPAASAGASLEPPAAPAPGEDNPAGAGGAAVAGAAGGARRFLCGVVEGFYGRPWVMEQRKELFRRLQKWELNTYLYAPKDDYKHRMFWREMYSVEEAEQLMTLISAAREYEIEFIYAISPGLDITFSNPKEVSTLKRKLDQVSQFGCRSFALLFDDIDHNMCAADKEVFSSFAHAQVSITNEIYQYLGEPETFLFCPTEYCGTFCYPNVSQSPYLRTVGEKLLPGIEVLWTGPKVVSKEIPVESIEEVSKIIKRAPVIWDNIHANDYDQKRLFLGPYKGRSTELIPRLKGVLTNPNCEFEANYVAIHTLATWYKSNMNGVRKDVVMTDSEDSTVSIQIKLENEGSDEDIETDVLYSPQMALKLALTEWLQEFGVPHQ
T1 sequence (O60502 535-715): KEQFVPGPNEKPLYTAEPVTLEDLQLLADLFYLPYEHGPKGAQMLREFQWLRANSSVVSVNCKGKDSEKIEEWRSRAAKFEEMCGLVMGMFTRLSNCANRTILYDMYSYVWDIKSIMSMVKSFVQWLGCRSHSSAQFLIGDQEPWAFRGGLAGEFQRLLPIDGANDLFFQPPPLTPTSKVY
Experiment: Inhibition of recombinant human O-GlcNAcase (resorufin N-acetyl-β-D-glucosaminide)
Assay type: biochemical
Conditions: for Ki: recombinant human O-GlcNAcase, read-out: Ki OGA
Description: The gene of the longest isoform of hOGA (hOGA-L; Uniprot Accession number: O60502) was synthesised in a codon-optimised form for recombinant expression in Escherichia coli. The successful expression construct encoded the N-terminal region of hOGA, comprising amino acids 11–396, and the C-terminal region, comprising amino acids 535–715. The N-terminal construct was cloned in the vector pACYC-Duet (Millipore) using the sequence and ligation-independent cloning method in frame with an N-terminal His6 tag. The C-terminal construct was cloned into the vector pET-YSBLIC3C27 with an N-terminal His6 tag followed by a 3 C-protease cleavage site using the same method. The nucleotide sequences of all made constructs were confirmed by sequencing. Both vectors were simultaneously transformed into E. coli Bl21(DE3)-Gold (Agilent) for subsequent protein expression. Cells were grown in 2 L TB-medium to an OD600 of ∼1.0 and protein synthesis was then induced by adding IPTG to a final concentration of 0.1 mM. Protein expression was carried out at 16 °C with an induction time of 20 h. The cells were harvested by centrifugation at 4,500 × g for 20 min, flash frozen and stored at −20 °C until required. For purification of the hOGA complex, cells were resuspended in 50 mM HEPES pH 7.0, 750 mM NaCl, 20 mM imidazole, and 0.5 mM DTT (resuspension buffer). Cells were lysed using a French Press at 25 kPsi. The lysate was cleared by centrifugation at 50,000 g for 1 h, and the supernatant was passed through a 10 ml HisTrap FF column (GE Healthcare) pre-equilibrated with resuspension buffer. The bound hOGA was purified by gradient elution over 10 column volumes using 0% to 50% of elution buffer (50 mM HEPES pH 7.0, 750 mM NaCl, 500 mM imidazole and 0.5 mM DTT). hOGA-containing fractions were combined, concentrated by ultrafiltration using Vivaspin columns (Sartorius) with a molecular weight cut-off (MWCO) of 30 kDa, and applied to a Superdex S200 column (GE Healthcare) pre-equilibrated with size-exclusion buffer (10 mM HEPES pH 7.0, 250 mM NaCl, 1 mM DTT). Fractions corresponding to the dimeric form of hOGA were combined and concentrated to 20 mg/mL by ultrafiltration with a Vivaspin (MWCO: 30 kDa) column, flash frozen using liquid nitrogen, and stored at −80 °C until required.
Inhibition assays were run at 0.2 nM [hOGA] in the same buffer, in the presence or absence of various concentrations of inhibitors and at a fixed substrate concentration of 25 µM and 1% DMSO. First, inhibitor was serially diluted to the desired range of concentrations in 2% DMSO buffer. Next, 50 µL of inhibitor solutions at various concentrations in 2% DMSO Buffer was added to 50 μl of 0.8 nM enzyme and allowed to incubate at 25 °C for 5 min. 100 µL of 50 µM and 1% DMSO substrate was then added and reaction mixture was immediately mixed and aliquoted in 45 µL triplicates to a CORNING 384 well black plate. Fluorescence signal was measured continuously for 20 min at 37 °C in a BioTek Neo 2 Plate reader set at excitation and emission wavelengths of 572 and 610 nm, respectively. Max reaction rates for all inhibitor concentrations were calculated within Gen5 BioTek reader software. % Activity was subsequently calculated for each inhibitor concentration against the max reaction rate of uninhibited hOGA.

SMILES | Ki | IC50 (read-out: IC50 against OGA)
CC(=O)N[C@H]1CN(C(=S)NCc2ccccc2)[C@H](CO)[C@H](O)[C@@H]1O [Compound 3, 2-Acetamido-1,2-dideoxy-5-N-(N’-benzylthiocarbamoyl)galactonojirimycin] | > 100 µM | –
CC(=O)N[C@H]1CN(C(=S)Nc2ccccc2)[C@H](CO)[C@H](O)[C@@H]1O [Compound 4, 2-Acetamido-1,2-dideoxy-5-N-(N’-phenylthiocarbamoyl)galactonojirimycin] | > 100 µM | –
CC(=O)NC1CN2C(=NCc3ccccc3)SCC2C(O)C1O (stereo not drawn) [Compound 7, 2-Acetamido-1,2-dideoxy-5-N,6-S-(N’-benzyliminomethylidene)-6-thiogalactonojirimycin] | 25 µM | 25 µM
CCCCCCCCN=C1SCC2C(O)C(O)C(NC(C)=O)CN12 (stereo not drawn) [Compound 6, 2-Acetamido-1,2-dideoxy-5-N,6-S-(N’-octyliminomethylidene)-6-thiogalactonojirimycin] | > 100 µM | –
CC(=O)NC1CN2C(=Nc3ccccc3)SCC2C(O)C1O (stereo not drawn) [Compound 8, 2-Acetamido-1,2-dideoxy-5-N,6-S-(N’-phenyliminomethylidene)-6-thiogalactonojirimycin] | > 100 µM | –
CCCCNC(=S)N1C[C@H](NC(C)=O)[C@@H](O)[C@@H](O)[C@H]1CO [Compound 1, 2-Acetamido-1,2-dideoxy-5-N-(N’-butylthiocarbamoyl)galactonojirimycin] | > 100 µM | –
CCCCN=C1SCC2C(O)C(O)C(NC(C)=O)CN12 (stereo not drawn) [Compound 5, 2-Acetamido-1,2-dideoxy-5-N,6-S-(N’-butyliminomethylidene)-6-thiogalactonojirimycin] | > 100 µM | –
CCCCCCCCNC(=S)N1C[C@H](NC(C)=O)[C@@H](O)[C@@H](O)[C@H]1CO [Compound 2, 2-Acetamido-1,2-dideoxy-5-N-(N’-octylthiocarbamoyl)galactonojirimycin] | > 100 µM | –
